Our source for the EC50 values is BindingDB's records for doi:10.1021/jm010841w (University of Bristol, 2002).

Each structure is given as a SMILES string.

The nature of assay [1]: Maximum % effect of standard (DAMGO) was reported against Opioid receptor mu 1.
Assay [2] in a line: Maximum percentage effect of standard Opioid receptor delta 1 (Cl-DPDPE).

Take `Cc1ccc(-c2cn(Cc3ccccc3)c3c2C[C@@]2(O)C4Cc5ccc(O)c6c5[C@@]2(CCN4CC2CC2)[C@H]3O6)cc1` [7-benzyl-18-cyclopropylmethyl-5-(4-methylphenyl)-10-oxa-7,18-diazahexacyclo[9.9.1.01,9.02,17.04,8.015,21]henicosa-4(8),5,11,13,15(21)-pentaene-2,12-diol]: the midpoint of the response in assay [1], the EC50, lay at 34 nM. With `CN1CC[C@]23c4c5ccc(O)c4O[C@H]2c2c(c(-c4ccccc4)cn2Cc2ccccc2)C[C@@]3(O)C1C5` [7-benzyl-18-methyl-5-phenyl-10-oxa-7,18-diazahexacyclo[9.9.1.01,9.02,17.04,8.015,21]henicosa-4(8),5,11,13,15(21)-pentaene-2,12-diol], a half-maximal response in assay [2] (EC50) required 41 nM.
